Reference: PMC11813584, “An odorant-binding protein functions in fire ant social immunity interfacing with innate immunity” (Open Biology, 2025)
“Also recorded” adds a separate entry of the source. Where two headings read alike, the source gives them in different places.

Key:
SiFABP5 = SiFABP5 (Solenopsis invicta, UniProt Z9HHL8OTK9); experiment: 1-NPN fluorescent binding / competition assay, purified SiFABP5; details: 1-NPN displacement; 2 μM 1-NPN, 2 μM protein; read-out: Kapp, competition, SiFABP5
SiFABP5, sequence (Z9HHL8OTK9 1-133): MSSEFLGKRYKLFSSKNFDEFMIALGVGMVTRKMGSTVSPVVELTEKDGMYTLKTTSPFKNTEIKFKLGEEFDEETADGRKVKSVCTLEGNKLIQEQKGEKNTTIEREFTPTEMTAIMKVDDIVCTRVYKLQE
Protocol: (§1) The ORFs corresponding to SiOBP15, SiApoLp-III and SiFABP5 were separately cloned into the pET28a expression vector as His-tag fusion proteins. The integrity of plasmid constructs was verified by sequencing and plasmids were transformed into the Escherichia coli BL21 strain for heterologous protein expression. Proteins were purified using a nickel affinity (NI) resin (Ni-Sepharose Cl-6B agarose) according to the manufacturer’s protocol. Purified proteins were analysed by SDS–PAGE for purity and further confirmed by western blotting using an anti-His tag antibody as the probe. […] Protein–protein interactions between SiOBP15 and SiApoLp-III and SiOBP15 and SiFABP5 were analysed using open surface plasmon resonance (SPR) by coupling the SiOBP15 protein (ligand) to a COOH chip until saturation. […] Binding kinetics were analysed by titration of the proteins. […] Dissociation constants were calculated using TraceDrawer (Ridgeview Instruments ab, Sweden) with a one-to-one interaction model.
(§2) N-phenyl-1-naphthylamine (1-NPN) was used as a probe for competition (displacement) based fluorescent binding assays as previously described. Samples were analysed using a Hitachi F-2000 fluorescence spectrophotometer at an excitation wavelength of 350 nm and an emission wavelength of 420 nm. […]

SiOBP15 = SiOBP15 (Solenopsis invicta, UniProt F1DI94); experiment: 1-NPN fluorescent binding / competition (displacement) assay, purified SiOBP15; details: for binding to SiOBP15 (in words): 1-NPN competition, SiOBP15 alone
SiOBP15, sequence (F1DI94 entry or part of it): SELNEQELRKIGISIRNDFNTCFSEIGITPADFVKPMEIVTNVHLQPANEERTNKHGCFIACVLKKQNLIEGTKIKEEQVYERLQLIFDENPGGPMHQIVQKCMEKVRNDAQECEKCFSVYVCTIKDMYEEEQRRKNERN
Protocol: (§3) The ORFs corresponding to SiOBP15, SiApoLp-III and SiFABP5 were separately cloned into the pET28a expression vector as His-tag fusion proteins. The integrity of plasmid constructs was verified by sequencing and plasmids were transformed into the Escherichia coli BL21 strain for heterologous protein expression. Proteins were purified using a nickel affinity (NI) resin (Ni-Sepharose Cl-6B agarose) according to the manufacturer’s protocol. Purified proteins were analysed by SDS–PAGE for purity and further confirmed by western blotting using an anti-His tag antibody as the probe. His-tags were removed by protease cleavage, and after determining final protein concentrations, aliquots of the purified protein samples were maintained at −80°C. Protein–protein interactions between SiOBP15 and SiApoLp-III and SiOBP15 and SiFABP5 were analysed using open surface plasmon resonance (SPR) by coupling the SiOBP15 protein (ligand) to a COOH chip until saturation. Purified SiFABP5 and SiApoLp-III proteins (analytes) were then added to analyse the kinetics of the interaction between these proteins. Binding kinetics were analysed by titration of the proteins. All experiments were performed three times with the same ‘chip’, and the entire experiment was repeated with three independent COOH-SiOBP15 chip. Dissociation constants were calculated using TraceDrawer (Ridgeview Instruments ab, Sweden) with a one-to-one interaction model.
(§4) N-phenyl-1-naphthylamine (1-NPN) was used as a probe for competition (displacement) based fluorescent binding assays as previously described. Samples were analysed using a Hitachi F-2000 fluorescence spectrophotometer at an excitation wavelength of 350 nm and an emission wavelength of 420 nm. The binding constant of the purified proteins to 1-NPN was determined over a substrate concentration range from 2 to 20 μM using 1.0 μM protein in 10 mM HEPES, 100 mM NaCl buffer, pH 7.5. Subsequent competition/displacement assays using test ligands were performed using a concentration of 2 μM 1-NPN, 2 μM protein and 2−40 μM test ligand. Dissociation constants (Kd) for 1-NPN were calculated by Scatchard plot analyses using GraphPad Prism 8 Software (GraphPad, La Jolla, CA, USA). The dissociation constants of test ligands (Kapp) in 1-NPN competition assays were calculated using the concentration of test ligand required to displace 50% of the 1-NPN signal (IC50) values using the following equation: Kapp = (IC50)/(1 + (1 − NPN)/K1 – NPN).

SiOBP15 + SiFABP5 = SiOBP15 + SiFABP5 (Solenopsis invicta, UniProt F1DI94+Z9HHL8OTK9); experiment: 1-NPN fluorescent binding / competition assay, SiOBP15 co-incubated with SiFABP5; details: 1-NPN displacement; co-incubation of SiOBP15 with SiFABP5; read-out: Kapp, competition, SiOBP15 + SiFABP5
SiOBP15 + SiFABP5, sequence (F1DI94 23-162 limits assumed): as the sequence (F1DI94 entry or part of it) above
SiOBP15 + SiFABP5, sequence (Z9HHL8OTK9 1-133): as the sequence (Z9HHL8OTK9 1-133) above
Protocol: as §1, §2

SiOBP15 + SiApoLp III = SiOBP15 + SiApoLp III (Solenopsis invicta, UniProt F1DI94); experiment: 1-NPN fluorescent binding / competition assay, SiOBP15 co-incubated with SiApoLp-III
SiOBP15 + SiApoLp III, sequence (F1DI94 entry or part of it): as the sequence (F1DI94 entry or part of it) above
SiOBP15 + SiApoLp III, sequence (Q6B972 entry or part of it, further chain): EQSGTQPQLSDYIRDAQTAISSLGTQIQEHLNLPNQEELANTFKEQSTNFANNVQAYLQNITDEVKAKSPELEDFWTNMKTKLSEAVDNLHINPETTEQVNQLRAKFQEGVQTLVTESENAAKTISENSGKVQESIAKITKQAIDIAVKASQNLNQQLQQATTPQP
Protocol: as §3, §4

S. invicta workers = experiment: Dismemberment behavioural assay; type: in vivo, Solenopsis invicta; details: for dismemberment behaviour towards freeze-killed ants treated with the compound: healthy / untreated and GFP-RNAi workers, compared to freeze-killed control ants; for effect on behaviour: corpse-dismemberment of freeze-killed conspecifics treated with the chemical; for corpse dismemberment, RNAi targeting SiOBP15 + SiApoLp-III: dual RNAi; for corpse dismemberment, RNAi targeting SiOBP15 + SiApoLp-III / corpse dismemberment, RNAi targeting SiApoLp-III / corpse dismemberment, RNAi targeting SiFABP5 / corpse dismemberment, RNAi targeting SiOBP15 / corpse dismemberment, GFP RNAi (control) workers: freeze-killed corpses + chemical; for corpse dismemberment, RNAi targeting SiOBP15 + SiApoLp-III / corpse dismemberment, RNAi targeting SiApoLp-III / corpse dismemberment, RNAi targeting SiFABP5 / corpse dismemberment, RNAi targeting SiOBP15: compared to freeze-killed workers treated with the same chemical; for corpse dismemberment, GFP RNAi (control) workers: compared to freeze-killed, no additions
Protocol: Fresh corpses of workers killed by either rapid immersion in liquid nitrogen were collected and maintained at −80°C until use. Infection was performed by immersing workers for 5 s in 1 × 10^8 suspensions of fungal conidia. Infected workers were kept in isolated boxes until mortality (3–4 days) and were then used immediately for dismemberment assays. Each technical replicate of a dismemberment assay used five workers selected from different treatment groups (i.e. killed by freezing, killed by B. bassiana or subjected to another treatment as indicated). Of the five ‘killed’ workers, […] near the edge of the container in a ‘+’ pattern of a plastic container (9 cm diameter) and one in the centre. To each container was added 15 healthy workers or 15 workers treated as described below (e.g. RNAi treated). Containers contained an Eppendorf tube with a sterile solution of 5% sucrose. Corpse-dismemberment behaviour was assessed every 12 h for three consecutive days, and corpse limbs or other parts that were dismembered were counted. The corpse-dismemberment percentage was calculated by dividing the total number of dismembered parts (5 corpses × 10 body parts/each cage/3 days). Each experiment contained three technical replicates, and the entire experiment was repeated at least three times.
The specific dsRNA primers used in this study were synthesized using an in vitro transcription T7 kit (TAKARA, Dalian, China; electronic supplementary material, table S1). dsRNA concentrations were measured using a NanoVue Plus spectrophotometer (GE Healthcare Life Sciences, Little Chalfont, UK). In total, 50 nl of dsRNA of either the target genes or DsRNA-GFP (control) at indicated concentrations (up to 3000 ng μl^−1) were injected into each worker. Dismemberment assays were performed as above with three technical replicates, and each experiment was repeated at least three times using three different batches of ants. RNAi efficiencies was analysed by qRT-PCR.

[1] = 1-NPN displacement; co-incubation of SiOBP15 with SiApoLp-III; read-out: Kapp, competition, SiOBP15 + SiApoLp III
[2] = read-out: Kapp, competition, SiOBP15 + SiApoLp III; 1-NPN displacement; co-incubation of SiOBP15 with SiApoLp-III
[3] = 1-NPN displacement, 2 μM 1-NPN, 2 μM protein, 2-40 μM test ligand, read-out: Kapp, competition, SiOBP15

| Compound | binding to SiOBP15 (in words) (SiOBP15) | dismemberment behaviour towards freeze-killed ants treated with the compound (S. invicta workers) | binding to SiOBP15 incubated with SiApoLp-III (in words) (SiOBP15 + SiApoLp III; 1-NPN competition, complex) | Ki (SiOBP15 + SiApoLp III; [1]) | Ki (SiOBP15; [3]) | corpse dismemberment, RNAi targeting SiOBP15 + SiApoLp-III (S. invicta workers) | corpse dismemberment, RNAi targeting SiApoLp-III (S. invicta workers) | corpse dismemberment, RNAi targeting SiFABP5 (S. invicta workers) | corpse dismemberment, RNAi targeting SiOBP15 (S. invicta workers) | corpse dismemberment, GFP RNAi (control) workers (S. invicta workers) | also measured |
| --- | --- | --- | --- | --- | --- | --- | --- | --- | --- | --- | --- |
| 3-octenol | able to bind |  |  |  |  |  |  |  |  |  | Ki (SiFABP5): 15.7 µM; Ki (SiOBP15 + SiFABP5): 12.6 µM |
| c1ccc(Nc2cccc3ccccc23)cc1 [1-NPN, N-phenyl-1-naphthylamine, reference compound] |  |  |  |  |  |  |  |  |  |  | Kd (SiOBP15; Kd of 1-NPN to SiOBP15 (printed in figure 2C), SiOBP15+NPN, unit inferred): 16.9 µM; Kd (SiOBP15; Kd of 1-NPN to SiOBP15, Scatchard analysis, 1.0 μM protein, 2 to 20 μM 1-NPN): 16.9 µM; Kd (SiOBP15 + SiApoLp III; read-out: dissociation constant of 1-NPN to SiOBP15 + SiApoLp-III; co-incubation; modelled to single 1-NPN binding sites): 18.2 µM |
| CC(=O)C(C)=O [2,3 butanedione] | binds | No significant effects | limited binding | 70.9 µM |  |  |  |  |  |  |  |
| CC1CCOC1=O (stereo not shown) [3-methyltetrahydro-2-furanone] |  | No significant effects |  |  |  |  |  |  |  |  | Ki (SiOBP15): 16 µM; Ki (SiOBP15 + SiApoLp III; [2]): 57.2 µM |
| CCCCC=CCCO [3-octenol] |  |  |  | > 500 µM | 15.2 µM |  |  |  |  |  |  |
| CC(=O)C(C)O (stereo not shown) [acetoin] | binds | No significant effects | limited binding | 83.3 µM | 26.5 µM |  |  |  |  |  |  |
| CCCCCCCCCCCCCCCCCCCCCC(=O)O [behenic acid] |  | significant increase; also recorded: induced dismemberment behaviour; also recorded: induces corpse-dismemberment |  |  |  | decreased^b | decreased^b | no change^b | slight decrease^b | increased^a | effect on behaviour (S. invicta workers): induces dismemberment; Ki (SiOBP15): 14 µM; Ki (SiOBP15 + SiApoLp III; [2]): 19.3 µM |
| CCCCC/C=C\C/C=C\CCCCCCCC(=O)O [linoleic acid, cis,cis-9,12-linoleic acid] | able to bind | significantly reduced | did not show binding | > 500 µM | 25.8 µM | increased^c | no change^c | increased^c | increased^c | decreased^a | effect on behaviour (S. invicta workers): inhibits dismemberment; dismemberment behaviour towards freeze-killed ants treated with the compound (S. invicta workers; listed as cis, cis-9,12-linoleic acid): inhibit this behaviour; dismemberment behaviour towards freeze-killed ants treated with the compound (S. invicta workers; listed as cis,cis-9,12-linoleic acid): significant decrease |
| C=CC(=C)CCC=C(C)C [myrcene] |  | No significant effects |  |  |  |  |  |  |  |  |  |
| CCCCCCCC/C=C\CCCCCCCC(=O)O [oleic acid] | able to bind | significant decrease; also recorded: reduced dismemberment behaviour; also recorded: inhibit this behaviour | did not show binding |  |  | no change^d | no change^d | no change^d | no change^d | decreased^a | effect on behaviour (S. invicta workers): inhibits dismemberment; Ki (SiOBP15): 15.5 µM; Ki (SiOBP15 + SiApoLp III; [2]): > 500 µM |
| CCCCCCCCCCC/C=C/CCCCC(=O)O [trans-6-octadecenoic acid] |  | No significant effects |  |  |  |  |  |  |  |  |  |
| CCCCCCCC/C=C/CCCCCCCCCC(=O)O [trans-11-eicosenoic acid] | No binding | No significant effects; also recorded: did not alter dismemberment behaviour |  | > 500 µM | > 500 µM | no change^e | no change^e | no change^e | no change^e | no change^a |  |
